Laboratory results as given in patent US7964594B1, “Amino oxazine derivatives” (Hoffmann-La Roche Inc., priority 2009, dated 2011).

Molecular target: T1, BACE2 (Rattus norvegicus, UniProt Q6IE75)
T1 construct: endogenous cellular BACE2 in the Ins1e rat cell line; endogenous in cells; host or cells: INS-TMEM27 (INS1e-derived rat insulinoma cell line with doxycycline-inducible full-length hTMEM27)
T1 sequence (Q6IE75 63-514): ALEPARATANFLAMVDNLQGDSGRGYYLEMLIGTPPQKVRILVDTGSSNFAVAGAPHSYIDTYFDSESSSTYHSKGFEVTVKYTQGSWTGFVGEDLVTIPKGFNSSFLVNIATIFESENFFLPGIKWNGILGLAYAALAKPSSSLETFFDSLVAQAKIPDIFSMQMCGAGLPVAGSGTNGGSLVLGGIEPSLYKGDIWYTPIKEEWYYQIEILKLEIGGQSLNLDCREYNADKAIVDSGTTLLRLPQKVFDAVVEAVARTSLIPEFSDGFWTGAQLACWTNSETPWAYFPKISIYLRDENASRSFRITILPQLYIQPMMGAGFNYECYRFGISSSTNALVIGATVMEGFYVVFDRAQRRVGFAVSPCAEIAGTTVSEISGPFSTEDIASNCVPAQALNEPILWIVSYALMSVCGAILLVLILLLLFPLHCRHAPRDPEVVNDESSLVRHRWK
Test: Assay for BACE inhibition by measuring cellular TMEM27 cleavage (INS-TMEM27 cells, ELISA of shed TMEM27)
Format: cell-based
Details: inhibition of human TMEM27 cleavage by endogenous cellular BACE2 in Ins1e rat cell line; ELISA of culture medium
Description: Assay for BACE Inhibition by Measuring Cellular TMEM27 Cleavage
The assay uses the principle of inhibition of human TMEM27 cleavage by endogenous cellular BACE2 in the Ins1e rat cell line and shedding from the cell surface into the culture medium, followed by detection in an ELISA assay. Inhibition of BACE2 prevents the cleavage and shedding in a dose-dependent manner.
The stable cell line “INS-TMEM27” represents an INS1e-derived cell line with inducible expression (using the TetOn system) of full-length hTMEM27 in a doxycycline-dependent manner. The cells were cultured throughout the experiment in RPMI1640+Glutamax (Invitrogen) Penicillin/Streptomycin, 10% Fetal bovine serum, […], […], 100 micrograms/ml G418 and 100 microgram/ml hygromycin and were grown in adherent culture at 37° C. in a standard CO2 cell culture incubator.
INS-TMEM27 cells were seeded in 96-well plates. After 2 days in culture, BACE2 inhibitor was added in a range of concentrations as required by the assay and after a further two hours, doxycycline was added to a final concentration of 500 ng/ml. The cells were incubated for a further 46 hours and the supernatant harvested for detection of shed TMEM27.
An ELISA assay (using a pair of mouse anti-human-TMEM27 antibodies, raised against the extracellular domain of TMEM27) was used for detection of TMEM27 in the culture medium. An IC50 for BACE2 inhibition was calculated using the ELISA readout for each inhibitor concentration with standard curve-fitting software XLfit (IDBS) for the Excel spreadsheet program.

C[C@@]1(c2cc(NC(=O)c3nccc4ccsc34)ccc2F)CCOC(N)=N1 [Example 11, Thieno[2,3-c]pyridine-7-carboxylic acid [3-((S)-2-amino-4-methyl-5,6-dihydro-4H-[1,3]oxazin-4-yl)-4-fluoro-phenyl]-amide]
IC50: 28 nM

Cc1nc(C(=O)Nc2ccc(F)c([C@]3(C)CCOC(N)=N3)c2)co1 [Example 8]
IC50: 19 nM

C[C@@]1(c2cc(NC(=O)c3ncccc3-c3ccccc3)ccc2F)CCOC(N)=N1 [Example 12, 3-Phenyl-pyridine-2-carboxylic acid [3-((S)-2-amino-4-methyl-5,6-dihydro-4H-[1,3]oxazin-4-yl)-4-fluoro-phenyl]-amide]
IC50: 34 nM

C[C@]1(c2cc(NC(=O)c3ccc(Cl)cn3)ccc2F)N=C(N)OCC12CC2 [Example 36, 5-Chloro-pyridine-2-carboxylic acid [3-((S)-6-amino-8-methyl-5-oxa-7-aza-spiro[2.5]oct-6-en-8-yl)-4-fluoro-phenyl]-amide]
IC50: 16 nM

C[C@@]1(c2cc(NC(=O)c3cc(Cl)ccn3)ccc2F)CCOC(N)=N1 [Example 9]
IC50: 143 nM

C[C@@]1(c2cc(NC(=O)c3ncc(F)cc3F)ccc2F)CCOC(N)=N1 [Example 33, 3,5-Difluoro-pyridine-2-carboxylic acid [3-((S)-2-amino-4-methyl-5,6-dihydro-4H-[1,3]oxazin-4-yl)-4-fluoro-phenyl]-amide]
IC50: 7 nM

CC[C@@]1(c2cc(NC(=O)c3ccc(Cl)s3)ccc2F)CCOC(N)=N1 [Example 21]
IC50: 240 nM
